Assay results published in patent US8034804B2 (N.V. Organon, priority 2001, dated 2011).

Legend:
[1] = test system: AMPA receptor; experiment: Patch clamp whole cell electrophysiology: glutamate-evoked steady state current in cultured hippocampal neurons; assay type: cell-based; conditions: 10 μM compound in extracellular solution; 0.5 mM glutamate; rat hippocampal neurons voltage clamped at −60 mV
From the text: The (pyrido/thieno)-[f]-oxazepin-5-one derivatives of the invention are AMPA receptor positive modulators, as can be determined by an increase in steady state current induced by application of glutamate in a conventional whole cell patch clamp method when a (pyrido/thieno)-[f]-oxazepin-5-one of the invention is present (see Example 10 and Table I). The compounds may be used in the treatment of neurological and psychiatric diseases where an enhancement of synaptic responses mediated by AMPA receptors is required, such as neurodegenerative disorders, cognitive or memory dysfunction, memory and learning disorders such as can result from ageing, attention disorder, trauma, stroke, epilepsy, Alzheimer's disease, depression, schizophrenia, psychotic disorders, sexual dysfunctions, autism, or a disorder or disease resulting from neurotic agents or substance abuse, and alcohol intoxication.
Hippocampal neuronal cultures were prepared from embryonic or 1-3 day old Sprague-Dawley rats which were decapitated and the heads immediately placed in ice cold HBS (HEPES Buffered Solution: 130 mM NaCl, 5.4 mM KCl, 10 mM HEPES, 1.0 mM MgCl2, 1.8 CaCl2, 25 mM glucose, adjusted to pH 7.4). The whole brain was excised and placed on pre-sterilised filter paper, soaked in HBS and the cerebellum was removed. The brain was chopped and an enzyme solution (0.5 mg/ml protease X and 0.5 mg/ml protease in HBS) was added and subsequently left for 40 minutes at room temperature to digest before trituration. Cells were resuspended and then counted to give a final concentration of 1.5×10^6 per ml. Cells were aliquoted onto poly-D-lysine- and Matrigel®-treated coverslips and left to incubate at 37° C. for 1-2 hours. When incubation was complete, 1 ml of growth medium was added to each well containing a coverslip and the cells were returned to the incubator. After 3-5 days the mitotic inhibitor cytosine arabinoside (5 μM) was added and the cells returned to the incubator until required.
The whole cell configuration of the patch clamp technique (Hamill et al., Pflügers Arch. 1981, 39, 85-100) was used to measure glutamate-evoked currents from postnatal hippocampal neurons maintained in culture for 4-7 days. A glass coverslip containing the culture was transferred to the recording chamber (Warner Instrument Corp., Hamden, Conn.) mounted on the stage of an inverted microscope (Nikon, Kingston, UK). The recording chamber contained 1-2 ml extracellular solution (145 mM NaCl, 5.4 mM KCl, 10 mM HEPES, 0.8 mM MgCl2, 1.8 CaCl2, 10 mM glucose and 30 mM sucrose, adjusted to pH 7.4 with 1 M NaOH) and was constantly perfused at a rate of 1 ml/min. Recordings were performed at room temperature (20-22° C.) using an Axopatch 200B amplifier (Axon Instruments Ltd., Foster City, Calif.). Data acquisition and analysis was performed using Signal software (Cambridge Electronic Design Ltd., Cambridge, UK). Pipettes were manufactured from GC120F-10 glass (Harvard Apparatus, Edenbridge UK) using a model P-87 electrode puller (Sutter Instruments Co., Novarto, Calif.). The patch electrodes had typical resistances of between 3-5 MΩ when filled with intracellular solution (140 mM potassium gluconate, 20 mM HEPES, 1.1 mM EGTA, 5 mM phosphocreatine, 3 mM ATP, 0.3 mM GTP, 0.1 mM CaCl2, 5 mM MgCl2, adjusted to pH 7.4 with 1 M KOH).
Cells were voltage clamped at a holding potential of −60 mV and glutamate (0.5 mM) was applied using a 12 channel semi-rapid drug application device (DAD-12. Digitimer Ltd., Welwyn Garden city, UK). The agonist glutamate was applied for 1 s every 30 s. […] Between applications saline flowed to clear any dead volume in the system. For each application steady-state currents were plotted from the difference in baseline and steady state current and averaged over 300 ms.
Two solutions of the compound in extracellular solution were made up, one with glutamate and one without. […]

[2] = test system: Mice; experiment: Inhibition of amphetamine-induced hyperlocomotion; assay type: in vivo, mouse; conditions: drug sc 30 minutes before 1.5 mg/kg d-amphetamine sulphate sc, locomotor activity measured for 60 minutes
Method: Mice were injected sc with drug treatment or vehicle control. 30 Minutes later mice were injected sc with 1.5 mg/kg d-amphetamine sulphate or saline and immediately placed in infra red locomotor boxes where locomotor activity (long duration beam breaks of two adjacent beams) and stereotypic behaviour (repetitive short-duration beam breaks) were measured for a period of 60 minutes. The experiment was analysed using a 3-Way ANOVA with experimental session, infra red locomotor boxes and treatment as factors, and in the case of treatment, significant effects were followed up using a Tukey (HSD) test.

[3] = test system: Rats; experiment: Differential reinforcement of low rates of responding, 72 seconds (DRL72); assay type: in vivo, rat; conditions: intraperitoneal route 30 minutes before 60 minute test session
Method: Rats are pretrained in a standard operant chamber to perform a DRL72 procedure according to Andrews et al (Andrews J S, Jansen J H M, Linders S, Princen A, Drinkenburg WHIM, Coenders C J H and Vossen J H M (1994). Effects of imipramine and mirtazapine on operant performance in rats. Drug Development Research, 32, 58-66). The test session lasts for 60 minutes with no limit to the number of trials. Each trial begins with the stimulus light on above the active lever. A response on the lever only results in delivery of a pellet if 72 seconds has elapsed. A response on the lever before 72 seconds has elapsed resets the timer and is not rewarded. The number of pellets earned and the number of lever presses is recorded and used to calculate an efficiency score. Test compounds are administered via the intraperitoneal route 30 minutes before the start of the test session. Antidepressants increase the number of pellets earned and decrease the number of lever presses.

(+)-6,6a,7,8,9,10-hexahydro-12H-pyrido[2,1-c]pyrido[3,2-f][1,4]oxazepine-12-one [Example 4D]
% Increase in steady state current at 10 μM [1]: 13%

O=C1c2ccc(C(F)(F)F)nc2OC[C@@H]2CCCN12 [Example 2B, (S)-8-trifluoromethyl-2,3,11,11a-tetrahydro-1H,5H-pyrrolo[2,1-c]pyrido[3,2-f][1,4]-oxazepine-5-one]
% Increase in steady state current at 10 μM [1]: 21%

O=C1c2ccc(Cl)nc2OC[C@@H]2CCCN12 [Example 4A, (S)-8-Chloro-2,3,11,11a-tetrahydro-1H,5H-pyrrolo[2,1-c]pyrido[3,2-f][1,4]oxazepine-5-one]
% Increase in steady state current at 10 μM [1]: 16%

Cc1ccc2c(n1)OCC1CCCN1C2=O.Cl [Example 3, (S)-8-Methyl-2,3,11,11a-tetrahydro-1H,5H-pyrrolo[2,1-c]pyrido[3,2-f][1,4]oxazepine-5-one Hydrochloride Salt]
% Increase in steady state current at 10 μM [1]: 12%

O=C1c2cc(Cl)sc2OC[C@@H]2CCCN12 [Example 5, (S)-7-Chloro-2,3,10,10a-tetrahydro-1H,5H-pyrrolo[2,1-c]thieno[3,2-f][1,4]oxazepine-5-one]
% Increase in steady state current at 10 μM [1]: 16%

(S)-8-Methoxy-2,3,11,11a-tetrahydro-1H,5H-pyrrolo[2,1-c]Pyrido[3,2-f][1,4]oxazepine-5-one [Example 7]
% Increase in steady state current at 10 μM [1]: 22%

O=C1c2ccc(C(F)(F)F)nc2OC[C@H]2CCCN12 [Example 2C, (R)-8-trifluoromethyl-2,3,11,11a-tetrahydro-1H,5H-pyrrolo[2,1-c]pyrido[3,2-f][1,4]-oxazepine-5-one]
% Increase in steady state current at 10 μM [1]: 19%

O=C1c2ccc(Cl)nc2OC[C@H]2CCCN12 [Example 4B, (R)-8-Chloro-2,3,11,11a-tetrahydro-1H,5H-pyrrolo[2,1-c]pyrido[3,2-f][1,4]oxazepine-5-one]
% Increase in steady state current at 10 μM [1]: 29%

O=C1c2cc(Cl)sc2OC[C@H]2CCCN12 [Example 6A, (R)-7-Chloro-2,3,10,10a-tetrahydro-1H,5H-pyrrolo[2,1-c]thieno[3,2-f][1,4]oxazepine-5-one]
% Increase in steady state current at 10 μM [1]: 20%

O=C1c2sccc2OC[C@@H]2CCCN12 [Example 1]
Inhibition of amphetamine induced hyperlocomotion [2]: inhibited amphetamine induced hyperlocomotion
% Increase in steady state current at 10 μM [1]: 32%

(S)-2,3,11,11a-tetrahydro-1H,5H-pyrrolo[2,1-c]pyrido[3,2-f][1,4]oxazepine-5-one
Inhibition of amphetamine induced hyperlocomotion [2]: inhibited amphetamine induced hyperlocomotion
% Increase in steady state current at 10 μM [1]: 22%
DRL72 operant performance (pellets earned, lever presses): antidepressant like profile [3]: antidepressant like profile
